Patent EP0923576B1, “4-AMINOETHOXY-INDOLONE DERIVATIVES AS DOPAMINE D2 AGONISTS” (Wyeth, priority 1996, dated 1998)

Legend:
dopamine D-2 receptor = biological target: T1, dopamine D-2 receptor (Rattus norvegicus, UniProt P61169); experiment: 3H-spiroperidol binding, affinity for the dopamine D-2 receptor in homogenized limbic brain tissue; conditions: for Ratio: ratio IC50 D2 Spiper / IC50 D2 Quin. (LowAg/HighAg), predicts intrinsic activity; for IC50: read-out: IC50 (nM) D2 Spiper
T1 construct: homogenized limbic brain tissue is incubated with ^3H-spiroperidol; from tissue
T1 sequence (P61169 whole entry): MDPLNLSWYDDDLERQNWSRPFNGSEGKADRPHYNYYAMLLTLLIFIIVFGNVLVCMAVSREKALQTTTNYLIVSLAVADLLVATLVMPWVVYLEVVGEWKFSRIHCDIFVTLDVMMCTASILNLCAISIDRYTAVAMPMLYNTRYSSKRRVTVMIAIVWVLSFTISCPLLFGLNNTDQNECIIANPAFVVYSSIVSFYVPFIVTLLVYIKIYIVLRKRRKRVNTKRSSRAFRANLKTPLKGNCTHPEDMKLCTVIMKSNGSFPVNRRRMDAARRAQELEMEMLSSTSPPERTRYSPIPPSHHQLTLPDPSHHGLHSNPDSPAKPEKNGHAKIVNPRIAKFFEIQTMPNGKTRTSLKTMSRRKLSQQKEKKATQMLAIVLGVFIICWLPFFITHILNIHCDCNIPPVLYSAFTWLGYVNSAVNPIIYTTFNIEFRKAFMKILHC

dopamine autoreceptor = dopamine autoreceptor (Rattus norvegicus, UniProt P61169); experiment: 3H-quinpirole binding, affinity for the dopamine autoreceptor in homogenized striatal brain tissue
dopamine autoreceptor, sequence (P61169 whole entry): as above

Row | Ratio (dopamine D-2 receptor) | IC50 (dopamine D-2 receptor) | IC50 (dopamine autoreceptor) | Compound
1 | 91 | 135 nM | 1.49 nM | CSC1C(=O)Nc2c(F)ccc(OCCNCc3ccsc3)c21 (stereo not drawn) [Example 1]
2 | 30.5 | 33.5 nM | 1.1 nM | O=C1Cc2c(OCCNCc3cccs3)ccc(Cl)c2N1 [Example 2a, 4-[2-Thien-2-ylmethyl)aminoethoxyl-7-chloro-1,3-dihydro-indol-2-one]
3 | 37.7 | 26.7 nM | 0.71 nM | O=C1Cc2c(OCCNCc3ccsc3)ccc(Cl)c2N1 [Example 2b, 4-[2-(Thien-3-ylmethyl)aminoethoxy]-7-chloro 1,3-dihydro-indol-2-one]
4 | 128 | 323 nM | 2.53 nM | O=C1Cc2c(OCCNCc3ccsc3)ccc(F)c2N1 [Example 3a]
5 | 293 | 398 nM | 1.36 nM | O=C1Cc2c(OCCNCc3cccs3)ccc(F)c2N1 [Example 3b, 4-[2-(Thien-2-ylmethyl)aminoethoxy]-7-fluoro-1,3-dihydro-indol-2-one]
